# Patent publication US9708602B2, “Screening for inhibitors of ribosome biogenesis” (priority 2013, dated 2017)
# Experiments:
# MCrg* cells = assay: Probing MCrg* with ribosome-targeting antibiotics: whole-cell growth and mAzami/mCherry fluorescence ratio; format: cell-based, E. coli
# Method: (§1) Whole-cell analyses (A-B): MCrg* cells were cultured in at 25° C. in M9 medium for 7 hours in the absence and presence of antibiotics, as indicated. Samples were taken every hour. (A) OD600 values were determined and (B) mAzami and mCherry fluorescence emission were detected and ratios were calculated. Fluorescence ratios of MCrg* were normalized to 1. Exemplary growth curves are given and fluorescence ratios are means from three independent experiments; error bars show s.d. Analyses of isolated ribosomal particles (C-H and J-M): Sucrose density gradient (10-25%) centrifugation profiles from (C) control cells with no antibiotic (none), (D) chloramphenicol (Cam), (E) erythromycin (Ery), (F) kanamycin (Kan) and (G) neomycin (Neo) treated cells. Sucrose gradient fractions from (C) to (G) were analyzed for fluorescence by a micro plate reader. A254 profiles and fluorescence bar charts were superimposed for (H) control cells with no antibiotic (none), (J) chloramphenicol (Cam), (K) erythromycin (Ery), (L) kanamycin (kan) and (M) neomycin (Neo) treated cells. Cells in presence and absence of antibiotics were cultured in LB medium at 25° C. for 3 hours before subsequent polysome analysis. Left shifted peaks of the large subunit are indicated by horizontal arrows, abnormal portions of the small subunit by vertical arrows; Bars with black lines: normalized mCherry fluorescence; Black bars: normalized mAzami fluorescence. Fluorescence was normalized to the first polysome peak (“disome”) where subunits are present in 1:1 ratio.
# (§2) Using MCrg*, it was investigated, whether treatment of cells with ribosome targeting antibiotics results in assembly defects of both ribosomal subunits. The antibiotics tested were chloramphenicol, erythromycin and neomycin, which are known to cause assembly defects of both ribosomal subunits, and kanamycin, which was so far not investigated for its potential to cause ribosome assembly defects. MCrg* cells were cultured in M9 medium for seven hours in the absence or presence of chloramphenicol (7 μg/ml), erythromycin (100 μg/ml), kanamycin (7 μg/ml) or neomycin (7 μg/ml). […] Treatment with chloramphenicol, by contrast, led to an increased fluorescence ratio, with a maximum of 1.20 after 7 hours. […] This hypothesis was tested by analyzing ribosome profiles obtained from MCrg* cells that grew in the presence of the antibiotics or without (FIG. 15C-G). […] The 70S peak and the polysomes (not shown) are reduced in intensity since no chloramphenicol was added prior to harvesting to prevent 70S run off.
# [1] = system: ribosomal subunits of MCrg* cells; assay: Sucrose density gradient ribosome profiles (A254 and fluorescence of fractions) of antibiotic treated MCrg* cells; format: cell-based, E. coli; conditions: for 30S peak region in A254 ribosome profile / 50S peak in A254 ribosome profile: cells cultured with antibiotic in LB medium at 25° C. for 3 hours, 10-25% sucrose gradient; for green (mAzami, large subunit) fluorescence in overlay of A254 and fluorescence profiles: sucrose gradient fractions, micro plate reader
# Method: as §1, §2
# When focusing on the overlay diagrams (combining A254 and fluorescence read outs) (FIG. 15H, J-M), ribosome profiles from non treated cells are basically congruent (FIG. 15H). […] These peaks of green fluorescence presumably represent defective assembly intermediates of the large subunit that are caused by all the antibiotics used in this study, but to different extend. […] To analyze eventual defects of the small subunit in more detail, the red fluorescence profiles were aligned and the one derived from non treated cells was compared with all the others obtained from antibiotic treated cells. […] A more thorough analysis including quantitation of the 16S and 23S rRNA within the sucrose fractions confirmed the presence of assembly intermediates.
# E. coli cells were inoculated from stationary cultures and incubated until mid-logarithmic phase (OD600=0.6-0.8). In order to record polysome profiles, cells were sedimented, resuspended and lysed. After centrifugation, lysates of 10 A260 units were loaded onto 5-45% sucrose gradients for polysome profiles or 10-40% gradients for subunit separation. Ultracentrifugation was performed at 41.000 rpm (3 h; polysome profiles) or 23.000 rpm (16 h, subunit separation). Ribosomal components in the gradients were analyzed by recording the A254 values and collecting 200 μl and 50 μl fractions, respectively, that were later examined in 96-well plates on fluorescence by using a plate reader.
# [2] = system: E. coli MC4100 and MC-RG1 cells; assay: Detection of ribosome assembly defects: growth (A650) and EGFP/mCherry fluorescence time course in 96-well plates; format: cell-based; conditions: 30° C., 96-well plate
# Excerpt: Monitoring biogenesis and assembly of ribosomal subunits also allows the detection of abnormalities in ribosome biogenesis and assembly processes. […] Chloramphenicol primarily binds to the large subunit and thereby inhibits the peptidyl transfer reaction. Alongside a resulting shut-down of protein synthesis, accumulating precursor particles of both ribosomal subunits have been observed. Therefore, treatment of cells with chloramphenicol causes precursor accumulation and assembly defects of ribosomal subunits. E. coli MC4100 and MC-RG1 cells were transferred to 96-well plates and incubated at 30° C. in a plate reader. After one hour, wild-type and reporter cells were treated with increasing amounts of chloramphenicol and incubation was continued for another six more hours. A650 values, EGFP and mCherry specific fluorescence intensities were automatically detected. In the absence of chloramphenicol, the growth curve of the reporter strain reached a maximum A650 of 0.5. […] In vivo fluorescence recordings of the E. coli MC4100rp/S-egfp,rpsB-mcherry-ΔygdP cells growing in 96-well plates were performed and fluorescent signals measured. EGFP/mCherry fluorescence intensity ratios differed clearly when comparing MC4100rp/S-egfp,rpsB-mcherry (RN55b) with MC4100rplS-egfp,rpsB-mcherry-ΔygdP reporter strains. […] The overall decreased EGFP/mCherry fluorescence ratio values of the knock-out strain compared to the RN55b reporter strain are caused by proportional lower EGFP fluorescence intensities. In summary, fluorescence recordings of reporter strains are suitable to detect changes in the level of ribosomal subunits, e.g. due to biogenesis defects.
# Cells grown to stationary phase were diluted to an OD600 of 0.05 and transferred into 96-well plates, such that each well contained an initial volume of 100 μl. […] Cells were further incubated in the plate reader for several hours and fluorescence as well as A650 data were collected every 10 minutes. Mean values were calculated and MC4100 fluorescence background values were subtracted from the reporter strain values.
Compound,"change in the fluorescence ratio (mAzami/mCherry) (MCrg* cells; 7 μg/ml, seven hours time course)",30S peak region in A254 ribosome profile [1],50S peak in A254 ribosome profile [1],"green (mAzami, large subunit) fluorescence in overlay of A254 and fluorescence profiles [1]","normalized fluorescence ratio (mAzami/mCherry) (MCrg* cells; erythromycin 100 μg/ml, after 5 hours, untreated MCrg* normalized to 1)","cell growth (OD600) (MCrg* cells; M9 medium, seven hours, 25° C., chloramphenicol 7 μg/ml, erythromycin 100 μg/ml, kanamycin 7 μg/ml, neomycin 7 μg/ml)","normalized fluorescence ratio (mAzami/mCherry), maximum (MCrg* cells; chloramphenicol 7 μg/ml, after 7 hours, untreated MCrg* normalized to 1)","concentration above which cells did not grow any further ([2]; added after one hour, six more hours incubation)","cell growth (A650) ([2]; increasing amounts added after one hour, six more hours incubation)",EGFP and mCherry fluorescence ([2]; increasing concentrations)
neomycin,did not show a significant change in the fluorescence ratio,additional peak on the left of the 30S peak,slight reduction and left shift of the 50S peak,green fluorescent peaks of weaker intensity but at similar positions within the profile,–,–,–,–,–,–
CC[C@H]1OC(=O)[C@H](C)[C@@H](O[C@H]2C[C@@](C)(OC)[C@@H](O)[C@H](C)O2)[C@H](C)[C@@H](O[C@@H]2O[C@H](C)C[C@H](N(C)C)[C@H]2O)[C@](C)(O)C[C@@H](C)C(=O)[C@H](C)[C@@H](O)[C@]1(C)O [erythromycin],–,30S peak had a shoulder on the left,reduced and left shifted 50S peaks,portion of green fluorescence within the region of the 30S peak,0.95,–,–,–,–,–
O=C(N[C@H](CO)[C@H](O)c1ccc([N+](=O)[O-])cc1)C(Cl)Cl [chloramphenicol],–,additional peak (left-lateral of 30S),reduced and left shifted 50S peaks,portion of green fluorescence within the region of the 30S peak,–,strongest growth defects,1.20,higher than 15.5 μM,dosedependent reduction of cell growth,decreased with increasing concentrations
